Measured values from US20100098657A1, “Method of Treating Cancer with Immunomodulatory Compounds and IgG” (priority 2007, published 2010).
Read-outs that look alike come from different tables or passages of the source. Peptide text beside a SMILES is read from it.

How the values were obtained:
granzyme B = assay: NK cell granzyme B production; type: cell-based, human
Description: (§1) To determine whether lenalidomide enhances IFN-γ production, the following assay was performed. Human IgG (Sigma), at a concentration of 100 μg/mL was coated onto 96-well, flat-bottom plates at 4° C. overnight. The unbound IgG was then washed away. […] Lenalidomide (Revlimid®, Celgene Corporation, Summit, N.J.) was added to the wells in the concentration range of 0.008-5 μM. After a 48-hour incubation, the supernatants were harvested and interferon-gamma (IFN-γ), as well as granzyme B and perforin levels were measured.

perforin = assay: NK cell perforin production; type: cell-based, human
Description: as §1

[1] = test system: Rituximab-treated target cells; assay: ADCC in the presence of anti-Fas-L or granzyme inhibitor; type: cell-based; conditions: lenalidomide plus Rituximab
Excerpt: Lenalidomide addition had no effect on perforin production, however (FIGS. 6B and 6C).

NK cells [2] = assay: NK IgG-induced IFN-γ assay; type: cell-based, human; conditions: for EC50: Homo sapiens, read-out: EC50 of enhancement of IFN-γ production
Description: (§2) NK cells and monocytes were isolated from fresh, buffy-coated, whole blood by 30-minute incubation with RossetteSep cocktail (StemCell Technologies, Inc.) followed by Ficoll-Hypaque density gradient centrifugation. CD56+ NK cells were isolated to ˜85% purity and CD14+ monocytes were isolated to ˜80% purity as determined by flow cytometry.
as §1

[3] = test system: Rituximab-coated Namalwa cells; assay: ADCC assay: NK cell specific lysis of Rituximab-coated Namalwa cells; type: cell-based, human; conditions: E:T=10:1; for EC50: Homo sapiens
Description: (§3) Preparation of NK cells: Purified NK cells (5×10^4) were seeded in 96-well U-bottom plates in 100 μL of 10% RPMI-1640 medium, supplemented with human AB+ serum. […] The cells were then incubated at 37° C. overnight.
(§4) Preparation of Rituximab-coated target cancer cells: Various NHL cell lines (Namalwa, Raji, Farage, and Jeko-1) were treated with 20 μg/mL Rituximab (Rituximab, Genentech, Inc.) for 30 minutes at 37° C. Excess unbound Rituximab was then removed by a washing step.
(§5) Addition of Rituximab-coated target cells to NK cells: The Rituximab-coated target cells (5×103/100 μL/well) were added to the pretreated effector NK cells at a ratio of 10:1. The cells were then co-incubated for 4 hours at 37° C.
(§6) Cytotoxicity analysis: NK cell cytotoxicity against the tumor cell lines was analyzed using a standard lactate dehydrogenase release assay (CytoTox 96 Non-radioactive Cytotoxicity Assay, Promega) to measure ADCC in a 50 μL aliquot of supernatant. The experimental release was corrected by subtraction of the spontaneous release of effector cells at the corresponding dilution. Spontaneous release from target cells alone was <15% of the maximum release as determined with target cells lysed in 1% Triton X-100.
(§7) Determination of effector: target ratio: Specific lysis for each effector-to-target (E:T) cell ratio was calculated using the following formula: % specific lysis=([experimental release−spontaneous release]/[maximum release−spontaneous release])×100.

[4] = test system: Rituximab-coated Raji cells; assay: ADCC assay: NK cell specific lysis of Rituximab-coated Raji cells; type: cell-based, human; conditions: for EC50: Homo sapiens, Raji
Description: as §3, §4, §5, §6, §7
Enhancement of NK cell cytotoxicity by immunomodulatory compounds lenalidomide and pomalidomide was assessed following procedures substantially similar to those described in Section 6.3, above.

[5] = test system: Rituximab-coated Farage cells; assay: ADCC assay: NK cell specific lysis of Rituximab-coated Farage cells; type: cell-based, human; conditions: E:T=10:1; for EC50: Homo sapiens, Farage; for increase of cell lysis: vs Rituximab-only treated cells
Description: as §3, §4, §5, §6, §7

[6] = test system: Rituximab-coated CD20+ Jeko-1 (mantle cell lymphoma) cells; assay: ADCC assay: NK cell-mediated killing of Rituximab-coated CD20+ Jeko-1 cells; type: cell-based, human
Description: as §3, §4
[…] The cells were then co-incubated for 4 hours at 37° C.
as §6, §7

[7] = test system: Rituximab-coated CD20+ Raji cells; assay: Monocyte-mediated lysis (ADCC) of Rituximab-coated Raji cells; type: cell-based, human
Description: as §2, §4, §6, §7
To evaluate monocyte ADCC, similar methods were used to prepare the monocytes.

[8] = test system: Rituximab-coated Farage cells; assay: Monocyte-mediated lysis (ADCC) of Rituximab-coated Farage cells; type: cell-based, human; conditions: E:T 50:1; lenalidomide at 10 μM; from 5%; no IL-2
Description: as §2, §4, §6
Determination of effector: target ratio: Specific lysis for each effector-to-target (E:T) cell ratio was calculated using the following formula: % specific lysis=([experimental release−spontaneous release]/[maximum release−spontaneous release])×100. […]

NK cells [9] = assay: NK cell expression of growth factors/chemokines (IL-2, IgG, lenalidomide); type: cell-based, human; conditions: lenalidomide 0.1, 1 or 10 μM with IL-2, IgG
Excerpt: (§8) As shown herein, immunomodulatory compounds, either alone or in combination with other agents, can alter the expression of several growth factors.

Fas-L = Fas-L expression on CD56+ NK cells (flow cytometry); type: cell-based, human
Description: Cytometry was undertaken on 50 μL samples containing 1×10^6 cells/mL in washing buffer, 2% FBS with 0.1% NaN3 in PBS. Fluorochrome-conjugated antibodies, unconjugated antibodies, and isotype control mAb were obtained from PharMingen (San Diego, Calif.). The cells were stained with anti-CD56-PE, anti-FasL-FITC or isotype control mAb (1 μg/10^6 cells), and analyzed by flow cytometry according to the manufacturer's instructions.

[10] = test system: Src homology-2 containing inositol 5′-phosphatase 1 (phospho-SHIP-1); assay: Immunoblot analysis of phospho-SHIP-1; type: cell-based; conditions: IL-12 plus IgG; lenalidomide 10 μM
Description: (§9) FIG. 7 is a panel of bar graphs showing the quantitation of an immunoblot comparison of cells treated with either IL-12 alone, IgG alone, IL-12 plus IgG, or IL-12 plus IgG plus lenalidomide (at 0.1 μM to 10 μM).
SHIP-1 is a negative regulator of cell proliferation, survival, and activation and also a negative regulator of Fc-γ and cytokine receptor-mediated signaling (Parihar et al., 2005, Cancer Res. 65:9099-9107). The inhibition of phospho-SHIP-1 increases IFN-γ release following NK cell stimulation with IgG and IL-12 (Parihar et al., 2005, Cancer Res. 65:9099-9107, which is incorporated by reference herein in its entirety) and thus may contribute to the mechanism of action of lenalidomide.

pPLC-γ2 = assay: Immunoblot analysis of pPLC-γ2; type: cell-based; conditions: IL-12 plus IgG
Description: as §9
(§10) Additionally, administration of the immunomodulatory compound lenalidomide was capable of increasing both pPLC-γ2 and pERK levels (FIGS. 7B and 7C). Increase in the levels of these proteins were also observed in connection with pomalidomide (FIGS. 13A and 13B). PLC-γ2 is involved in the maturation and activation of NK cells and triggers the release of lytic granules (Regunathan et al., 2006, Jour. Immunol 175:749-754, which is incorporated by reference herein in its entirety). PLC-γ2 also induces IFN-γ production and is necessary for cytotoxicity and chemokine production.

pERK = assay: Immunoblot analysis of pERK; type: cell-based; conditions: IL-12 plus IgG
Description: as §9, §10

[11] = test system: Trastuzumab-coated SK-BR-3 cells; assay: NK cell cytotoxicity against Trastuzumab-coated SK-BR-3 cells; type: cell-based, human
[12] = test system: Cetuximab-coated HCT-116 cells; assay: NK cell cytotoxicity against Cetuximab-coated HCT-116 cells; type: cell-based, human; conditions: presence of IL-2
NK cells [13] = assay: NK cell chemokine/cytokine production in response to Trastuzumab-coated SK-BR3 cells; type: cell-based, human
Description: as §8
The effects of immunomodulatory compounds lenalidomide and pomalidomide on NK cell chemokine/cytokine production in response to Trastuzumab-coated SK-BR3 cells were assessed using procedures substantially similar to those described in Section 6.6., above.

[14] = inhibitor 40 μM/mL added 1 hour prior to lenalidomide and IL-2
[15] = lenalidomide 1 μM with IL-2, E:T 50:1
[16] = presence of immobilized IgG and IL-2

CC[C@H](C)[C@H](NC(C)=O)C(=O)N[C@@H](CCC(=O)O)C(=O)N[C@H](C(=O)N[C@H](C=O)CC(=O)O)[C@@H](C)O [granzyme B inhibitor II] (Ac-IETD-aldehyde)
effect on IL-2 stimulated granzyme B production (granzyme B; [14]): abrogated | effect on IL-2-stimulated perforin production (perforin; [14]): inactive | prevention of ADCC [1]: totally prevented

Nc1cccc2c1CN(C1CCC(=O)NC1=O)C2=O (stereo not shown) [lenalidomide, 1-oxo-2-(2,6-dioxopiperidin-3-yl)-4-aminoisoindoline]
EC50 (NK cells [2]; immobilized IgG + IL-2): 90 nM | EC50 (NK cells [2]; immobilized IgG + IL-12): 46 nM | enhancement of IFN-γ production of NK cells (NK cells [2]; lenalidomide 0.008-5 μM + human IgG + IL-2, vs IgG plus IL-2 alone): 3 fold | enhancement of IFN-γ production of NK cells (NK cells [2]; lenalidomide 0.008-5 μM + human IgG + IL-12, vs IgG plus IL-12 alone): 8 fold | IFN-γ production (NK cells [2]; lenalidomide alone or lenalidomide plus IgG, no IL-2/IL-12): no IFN-γ was observed | increase of NK cell specific lysis ([3]; presence of IL-2 or IL-12, vs Rituximab-only treated cells): 5 fold | EC50 ([3]; IL-2): 190 nM | EC50 ([3]; IL-12): 240 nM | increase of NK cell specific lysis ([4]; E:T=10:1, presence of IL-2 or IL-12, vs Rituximab-only treated cells): 2 fold | EC50 ([4]; IL-2, E:T=10:1): 100 nM | EC50 ([4]; IL-12, E:T=10:1): 140 nM | NK cell cytotoxicity ([4]; presence of IL-2 (FIG. 8B/9B)): significantly increases | NK cell cytotoxicity ([4]; presence of IL-12 (FIG. 8E/9E)): significantly increases | EC50 ([5]; IL-2): 42 nM | EC50 ([5]; IL-12): 33 nM | increase of cell lysis ([5]; IL-2): 1.8 fold | increase of cell lysis ([5]; IL-12): 1.6 fold | NK cell-mediated killing ([6]; lenalidomide 1 μM + IL-2, Rituximab-coated cells, E:T 50:1): 95% | enhancement of NK cell-mediated killing above background ([6]; lenalidomide and Rituximab combined, background killing=40%): 55% | increase in tumor cell killing above background ([6]; single agent, background killing=40%): 5% | increase in NK cell-mediated killing activity ([6]; vs Rituximab-only treatment): 1.4 fold | increase in NK cell-mediated killing activity ([6]; vs uncoated (control) cells): > 2 fold | monocyte-mediated lysis ([7]; data not shown): enhance | increase in tumor cell-lysis activity [7, 15]: 2 fold | monocyte-mediated killing [7, 15]: > 60% | monocyte-mediated lysis (killing activity) [8]: 20% | NK cell expression of GM-CSF (NK cells [9]): increased | NK cell expression of IL-6 (NK cells [9]): decreased | NK cell expression of IL-8 (NK cells [9]): increased | NK cell expression of IP-10 (NK cells [9]): increased | NK cell expression of RANTES (NK cells [9]): increased | NK cell expression of monocyte chemotactic protein-1 (MCP-1) (NK cells [9]): increased | enhancement of NK cell Fas-L expression (Fas-L; lenalidomide 1 μM + IL-2 + immobilized IgG): > 2 fold | NK cell Fas-L expression (Fas-L; lenalidomide 1 μM + IL-2 + immobilized IgG, from <2%): 25% | percentage of CD56+ NK cells expressing Fas-L (Fas-L; lenalidomide 10 μM + immobilized IgG, from <5%): > 10% | NK cell Fas-L expression (Fas-L; lenalidomide 0.1-10 μM + IL-2 10 ng/mL + immobilized IgG): greater than that achieved by either agent alone | granzyme B production (granzyme B; over that observed with IL-2 alone, dose-dependent): enhanced | perforin production (perforin; with IL-2): no effect | levels of phospho-SHIP-1 [10]: decreased | pPLC-γ2 levels (pPLC-γ2): increasing | pERK levels (pERK): increasing | NK cell cytotoxicity ([11]; presence of IL-2): significantly increases | NK cell cytotoxicity ([11]; presence of IL-12): significantly increases | NK cell cytotoxicity [12]: significantly increases | production of any chemokines/cytokines (NK cells [13]; compound alone): did not induce | production of GM-CSF (NK cells [13]; [16]): dose-dependently enhanced | production of IL-8 (NK cells [13]; [16]): dose-dependently enhanced | production of IP-10 (NK cells [13]; [16]): dose-dependently enhanced | production of MCP-1 (NK cells [13]; [16]): dose-dependently enhanced | production of MIP-1α (NK cells [13]; [16]): dose-dependently enhanced | production of MIP-1β (NK cells [13]; [16]): not | production of RANTES (NK cells [13]; [16]): dose-dependently enhanced
